{"source": "patent EP4678179A1", "about": "“PHARMACEUTICAL COMPOSITION CONTAINING ACTIVE SULFUR MOLECULE” (Tohoku University, priority 2023, dated 2024)", "key": {"Rag2-/- host mice": {"test_system": "Rag2-/- host mice", "experiment": "T cell transfer enteritis (IBD) model: naive CD4+ T cells transferred into Rag2-/- mice, GSSSG administered intraperitoneally", "type": "in vivo", "excerpt": "CD4^+ T cells were magnetically sorted from splenocytes of young mice (from 8 to 12 weeks old). Then, naive CD4^+ T cells (CD3^+ CD4^+ CD25^- CD44^lo CD62L^hi or CD3^+ CD4^+ Foxp3-RFP^- CD44^lo CD62L^hi) were sorted using FACS AriaII (BD Bioscience) based on fluorescently labeled monoclonal antibodies or reporter fluorescent proteins. In experiments to confirm homeostatic maintenance proliferation, naive CD4^+ T cells were labeled with carboxyfluorescein succinimidyl ester (CFSE) (Thermo Fisher Scientific), and were injected into the tail veins of CD45.1 host mice irradiated with a sublethal dose (5.5 Gy), at 1 × 10^6 cells per mouse 1 day before transfer. In experiments to induce enteritis, wild-type or Cars2^+/- naive CD4^+ T cells were injected into the tail veins of Rag2^-/- mice at 3 × 10^5 cells per mouse. In experiments to evaluate the function of regulatory T cells, Cars2^+/+ naive CD4^+ T cells were co-transferred with regulatory T cells derived from Cars2^+/- Foxp3-RFP reporter mice (1 × 10^5 cells/mouse). In GSSSG administration experiments, GSSSG (400 nmol/mouse) was intraperitoneally administered to the Rag2^-/- host mice every day from the same day as the day when the naive CD4^+ T cells were transferred.\nAt the stage where from 3 to 4 weeks had elapsed after the transfer of the naive T cells, the large intestines of the Rag2^-/- host mice were collected and fixed with 10% formalin. After the fixed samples were embedded in paraffin, 5-µm-thick sections were cut out and subjected to hematoxylin-eosin staining (H & E) and immunostaining with a CD4 monoclonal antibody (mAb) (EPR19514). The histological inflammation score was classified into three groups with reference to a previous report (Biswas et al., Nat Commun 9, 1779 (2018)).\nTherefore, using the same IBD model, wild-type and Cars2+/- naive CD4+ T cells were adoptively transferred to Rag2-/- mice, and the properties of the donor cells and the IBD pathological conditions of the host mice were observed over time. […] Since there was no significant difference in proportion of dead cells between the two groups (FIGS. 4F, 5C, and 5F), the reason for the increase in number of accumulated cytokine-producing Cars2+/- T cells is considered to be enhanced homeostatic maintenance proliferation of the donor cells.\nTo confirm whether CARS2 suppresses the proliferation of enteritis pathogenic T cells via active sulfur, GSSSG, which is a donor of an active sulfur molecule, was administered to Rag2-/- host mice, and as a result, the body weight loss of the individuals transplanted with Cars2+/- CD4+ T cells was suppressed, and the reduction in histological enteritis images was observed (FIGS. 8A to 8C)."}, "human CD4+ T cells": {"test_system": "human CD4+ T cells", "experiment": "Cell cycle analysis of human naive CD4+ T cells stimulated with CD3/CD28 in the presence or absence of GSSSG", "type": "cell-based", "settings": "naive CD4+ T cells from peripheral bloods of healthy individuals; CD3/CD28 stimulation; GSSSG 1 µM; 48 hours; FIG. 10E", "procedure": "Peripheral mononuclear blood cells were isolated using Vacutainer (BD Bioscience), and naive CD4^+ T cells (CD3^+ CD4^+ CD25^- CD45RO^- CD45RA^+) were purified from the isolated mononuclear cells using FACS AriaII (BD Bioscience). The purified naive CD4^+ T cells were seeded in a 96-well plate at 5 × 10^4 cells per well, and stimulated with Dynabeads™ Human T-Activator CD3/CD28 (Thermo Fischer Scientific) in an RPMI medium (10% FCS) in the presence or absence of GSSSG (1 µM) for 48 hours.\nFinally, the involvement of active sulfur in the regulation of the proliferation of human CD4+ T cells was examined through in vitro cell culture. Specifically, naive CD4+ T cells purified from peripheral bloods of healthy individuals were stimulated with CD3/CD28 in the presence and absence of GSSSG to induce the proliferative response, and the cell cycle was analyzed 48 hours after the stimulation. […] Thus, it was shown that CARS2-dependent active sulfur metabolism also suppresses the cell cycle entry also in human CD4+ T cells and limits the proliferation of the same cells."}, "HDM-treated mice": {"test_system": "HDM-treated mice", "experiment": "HDM-induced mouse asthma model (type 2 airway inflammation), intraperitoneal GSSSG", "type": "in vivo", "procedure": "Asthma model mice were created according to a previous report (Ishii et al., Scandinavian journal of immunology. 2018; 87 (3)). Specifically, as shown in the FIG. 5A, mice were intranasally administered with HDM extract (at the indicated doses in PBS) under isoflurane anesthesia to induce asthma.\nTwenty four (24) hours after the last dose of HDM, the mice were anesthetized and sacrificed by exsanguination. The alveoli were washed three times with 500 µL of 10 mM PBS, and the bronchial alveolar lavage fluid (BALF) was collected. For 5 minutes, […], then the supernatant was stored for biochemical analysis, and the cellular pellet was resuspended in 500 µL of 10 mM PBS. The total number of cells was counted using a Scepter handheld automated cell counter (Millipore), followed by cytospin specimen preparation and staining with Diff-Quick (Sysmex) or Eosinostain-Torii (Torii Pharmaceutical).\nIsolation of cells from mouse lung tissue and FCM were performed according to previous reports (Gomez et al., American journal of respiratory cell and molecular biology. 2015; 52 (3): 349-64., and Yamada et al., American journal of respiratory and critical care medicine. 2011; 183 (10): 1391-401.). For histological examination of lung inflammation, lung sections were stained with hematoxylin and eosin (HE). Lung inflammation was semi-quantified and evaluated according to a previous report.\nIt was investigated whether intraperitoneal administration of GSSSG in vivo suppresses an HDM-induced type 2 airway inflammation. […] Thus, GSSSG has therapeutic potential in CD4 T cell-mediated type 2 inflammatory diseases, including asthma, by organizing TCR signaling."}}}
{"smiles": "N[C@@H](CCC(=O)N[C@@H](CSSSC[C@H](NC(=O)CC[C@H](N)C(=O)O)C(=O)NCC(=O)O)C(=O)NCC(=O)O)C(=O)O", "note": "[GSSSG, glutathione trisulfide]", "values": [{"measurement": "therapeutic effect", "setting": "Rag2-/- host mice; Rag2-/- host mice transfused with wild-type CD4+ T cells, GSSSG 400 nmol/mouse intraperitoneally every day, FIGS. 9A to 9C", "result": "no significant therapeutic effect"}, {"measurement": "body weight loss", "setting": "Rag2-/- host mice; Rag2-/- host mice transplanted with Cars2+/- CD4+ T cells, GSSSG 400 nmol/mouse intraperitoneally every day, FIG. 8A", "result": "suppressed"}, {"measurement": "histological enteritis images", "setting": "Rag2-/- host mice; Rag2-/- host mice transplanted with Cars2+/- CD4+ T cells, GSSSG 400 nmol/mouse intraperitoneally every day, large intestine, H & E and CD4 immunostaining, FIGS. 8B, 8C", "result": "reduction"}, {"measurement": "enteritis induced by Cars2+/- CD4+ T cells", "setting": "Rag2-/- host mice; figure legend of FIG. 8, administration of GSSSG to host mice", "result": "improved"}, {"measurement": "cell cycle entry of the naive CD4+ T cells", "setting": "human CD4+ T cells", "result": "significantly suppressed"}, {"measurement": "accumulation of inflammatory cells, particularly eosinophils, in the airways", "setting": "HDM-treated mice; both Cars2+/- mice and WT mice, HDM-treated, 1 mM GSSSG intraperitoneal, BALF, FIG. 14E", "result": "significantly suppressed"}, {"measurement": "lung inflammation", "setting": "HDM-treated mice; both HDM-treated Cars2+/- mice and HDM-treated WT mice, GSSSG treatment, HE-stained lung tissue, FIG. 14F", "result": "significantly reduced"}, {"measurement": "goblet cell hyperplasia", "setting": "HDM-treated mice; both HDM-treated Cars2+/- mice and HDM-treated WT mice, GSSSG treatment, PAS-stained lung tissue, FIG. 14G", "result": "significantly reduced"}]}
